This passage reports IC50 results from patent publication US20100029609A1 (priority 2006, published 2010).

The assay addresses T1, human S1P1 receptors (Homo sapiens, UniProt P21453).
T1 construct: expressed in transfected cells; host or cells: HeLa (human cervix carcinoma, ATCC CCL2), HeLa-S1P1/Gα16 cell clone 1
The experiment in a line: Human S1P Receptor Calcium FLIPR Antagonist Assay, HeLa Gα16 S1P1. It is filed as cell-based. Conditions: HeLa-S1P1/Gα16 cells; antagonism of Ca2+ signal of probing agonist GNF-AC-1 at EC80. From the text:
Human S1P Receptor Calcium FLIPR Antagonist Assays
The assay measures intracellular changes of Ca^2+ mediated by the synthetic probing agonist 3-{[2-(2-Trifluoromethyl-biphenyl-4-yl)-benzo[b]thiophen-5-ylmethyl]-amino}-propionic acid (GNF-AC-1) in the HeLa-S1P1/Gα16 cell clone 1: HeLa (human cervix carcinoma, ATCC CCL2) cells stably expressing N-terminally myc-tagged human S1P1 receptors (GenBank™ accession No. NM_001400; UNIPROT P21453) and promiscuous Gα16 protein (GenBank™ accession number M63904, Swissprot P30679) are cultured at 37° C., 5% CO2, and 95% relative humidity. The cells are plated in 384 well black plates (10,000 cells per well). After 24 hours the cells are loaded with Fluo4-AM (1.6 μM in HBSS and 2.5 mM probenicid) for 1 hour at 37° C. After washing, the cells are transferred to the FLIPR. The test compounds are added at different concentrations (≦30 μM) in HBSS in the presence of 0.1% BSA and changes in fluorescence are recorded (indication of agonism). The probing agonist is added 15 minutes afterwards to the wells at a concentration giving 80% of the maximal activity (EC80). After each addition time points are collected as follows: 20 time points (2 seconds) before the addition of the agonist (Fmin) and 60 time points (1 or 2 seconds) after the addition of the probing agonist. This allows the determination of the maximal fluorescence (Fmax). The ratio (Fmax-Fmin)/Fmin is plotted against the log of the concentration of the test compounds and the IC50 (relative antagonism) is determined with the help of XLfit-4 software. […] A dose response curve of the probing agonist is determined on each plate in parallel. The compounds of the invention are typically active in this assay at a concentration ranging typically from <1 nM to 30 μM, usually from less than 1 nanomolar to 1 micromolar.

T1 sequence (P21453 whole entry): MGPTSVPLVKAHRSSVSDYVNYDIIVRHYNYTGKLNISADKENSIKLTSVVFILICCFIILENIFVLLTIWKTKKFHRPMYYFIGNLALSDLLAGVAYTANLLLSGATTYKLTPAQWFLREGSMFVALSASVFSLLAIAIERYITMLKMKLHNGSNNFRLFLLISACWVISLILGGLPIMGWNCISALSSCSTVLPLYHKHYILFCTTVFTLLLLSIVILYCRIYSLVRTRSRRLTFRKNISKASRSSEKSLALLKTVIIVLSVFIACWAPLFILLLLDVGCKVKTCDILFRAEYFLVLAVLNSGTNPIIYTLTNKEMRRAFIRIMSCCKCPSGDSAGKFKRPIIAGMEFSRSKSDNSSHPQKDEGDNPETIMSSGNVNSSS

For `Cc1cc(S(=O)(=O)Nc2cccc(-c3ccc(C(=O)NCC(=O)O)cc3)c2)c(C)cc1Cl` [Example 23, {[3′-(4-Chloro-2,5-dimethyl-benzenesulfonylamino)-biphenyl-4-carbonyl]-amino}-acetic acid], the IC50 came out at 3.2 nM.

Consider `Cc1cc(S(=O)(=O)Nc2cccc(-c3ccc(C(=O)N[C@@H](C)C(=O)O)cc3)c2)c(C)cc1Cl` [Example 25, (S)-2-{[3′-(4-Chloro-2,5-dimethyl-benzenesulfonylamino)-biphenyl-4-carbonyl]-amino}-propionic acid], for which the IC50 is 8.8 nM. Take `Cc1cc(S(=O)(=O)Nc2cccc(-c3ccc(C(=O)N[C@@H](CO)C(=O)O)cc3)c2)c(C)cc1Cl` [Example 28]: the IC50 was 2.8 nM. `Cc1cc(S(=O)(=O)Nc2cccc(-c3ccc(C(=O)N[C@H](CC(=O)O)c4ccccc4)cc3)c2)c(C)cc1Cl` [Example 36, (R)-3-{[3′-(4-Chloro-2,5-dimethyl-benzenesulfonylamino)-biphenyl-4-carbonyl]-amino}-3-phenyl-propionic acid]: the IC50 is 9.4 nM.

As to `Cc1cc(S(=O)(=O)Nc2cccc(-c3ccc(C(=O)N[C@@H](CO)C(=O)O)c(C)c3)c2)c(C)cc1Cl` [Example 45, (S)-2-{[3′-(4-Chloro-2,5-dimethyl-benzenesulfonylamino)-3-methyl-biphenyl-4-carbonyl]-amino}-3-hydroxy-propionic acid], the IC50 turned out to be 1.1 nM. As for `Cc1cc(S(=O)(=O)Nc2cccc(-c3ccc(C(=O)N[C@H](CO)C(=O)O)c(C)c3)c2)c(C)cc1Cl` [Example 46, (R)-2-{[3′-(4-Chloro-2,5-dimethyl-benzenesulfonylamino)-3-methyl-biphenyl-4-carbonyl]-amino}-3-hydroxy-propionic acid], the IC50 came to 0.8 nM. Next, `Cc1cc(S(=O)(=O)Nc2cccc(-c3ccc(C(=O)N[C@H](C(=O)O)[C@@H](C)O)c(C)c3)c2)c(C)cc1Cl` [Example 47, (2S,3R)-2-{[3′-(4-Chloro-2,5-dimethyl-benzenesulfonylamino)-3-methyl-biphenyl-4-carbonyl]-amino}-3-hydroxy-butyric acid]: 1.5 nM; `Cc1cc(S(=O)(=O)Nc2cccc(-c3ccc(C(=O)N[C@@H](COC(C)(C)C)C(=O)O)c(C)c3)c2)c(C)cc1Cl` [Example 48, (S)-3-tert-Butoxy-2-{[3′-(4-chloro-2,5-dimethyl-benzenesulfonylamino)-3-methyl-biphenyl-4-carbonyl]-amino}-propionic acid]: 9 nM; `Cc1cc(S(=O)(=O)Nc2cccc(-c3ccc(C(=O)NC4(C(=O)O)CNC4)c(C)c3)c2)c(C)cc1Cl` [Example 51, 3-{[3′-(4-Chloro-2,5-dimethyl-benzenesulfonylamino)-3-methyl-biphenyl-4-carbonyl]-amino}-azetidine-3-carboxylic acid]: 3 nM. `Cc1cc(S(=O)(=O)Nc2cccc(-c3ccc(C(=O)NC4(C(=O)O)CN(C)C4)c(C)c3)c2)c(C)cc1Cl` [Example 55, 3-{[3′-(4-Chloro-2,5-dimethyl-benzenesulfonylamino)-3-methyl-biphenyl-4-carbonyl]-amino}-1-methyl-azetidine-3-carboxylic acid]: the IC50 worked out at 5 nM.

Turning to `CC(=O)N1CC(NC(=O)c2ccc(-c3cccc(NS(=O)(=O)c4cc(C)c(Cl)cc4C)c3)cc2C)(C(=O)O)C1` [Example 56, 1-Acetyl-3-{[3′-(4-chloro-2,5-dimethyl-benzenesulfonylamino)-3-methyl-biphenyl-4-carbonyl]-amino}-azetidine-3-carboxylic acid], the IC50 was found to be 5 nM. Take `Cc1cc(S(=O)(=O)Nc2cccc(-c3ccc(C(=O)NC4(C(=O)O)CC4)c(C)c3)c2)c(C)cc1Cl` [Example 57, 1-{[3′-(4-Chloro-2,5-dimethyl-benzenesulfonylamino)-3-methyl-biphenyl-4-carbonyl]-amino}-cyclopropanecarboxylic acid]: the IC50 was determined as 0.8 nM.

In the case of `Cc1cc(S(=O)(=O)Nc2cccc(-c3ccc(C(=O)N[C@H](C(=O)O)[C@H](C)O)c(C)c3)c2)c(C)cc1Cl` [Example 59, (2S,3S)-2-{[3′-(4-Chloro-2,5-dimethyl-benzenesulfonylamino)-3-methyl-biphenyl-4-carbonyl]-amino}-3-hydroxy-butyric acid], the IC50 worked out at 0.7 nM.

For the compound `COC[C@H](NC(=O)c1ccc(-c2cccc(NS(=O)(=O)c3cc(C)c(Cl)cc3C)c2)cc1C)C(=O)O` [Example 60, (S)-2-{[3′-(4-Chloro-2,5-dimethyl-benzenesulfonylamino)-3-methyl-biphenyl-4-carbonyl]-amino}-3-methoxy-propionic acid], the IC50 was determined as 1.5 nM.

Turning to `Cc1cc(S(=O)(=O)Nc2cccc(-c3ccc(C(=O)N[C@H](C(=O)O)C(C)(C)O)c(C)c3)c2)c(C)cc1Cl` [Example 61, (S)-2-{[3′-(4-Chloro-2,5-dimethyl-benzenesulfonylamino)-3-methyl-biphenyl-4-carbonyl]-amino}-3-hydroxy-3-methyl-butyric acid], the IC50 came out at 0.4 nM. Take `CC[C@H](NC(=O)c1ccc(-c2cccc(NS(=O)(=O)c3cc(C)c(Cl)cc3C)c2)cc1C)C(=O)O` [Example 62, (S)-2-{[3′-(4-Chloro-2,5-dimethyl-benzenesulfonylamino)-3-methyl-biphenyl-4-carbonyl]-amino}-butyric acid]: the IC50 was determined as 0.5 nM. `Cc1cc(S(=O)(=O)Nc2cccc(-c3ccc(C(=O)N[C@@H](C)C(=O)O)c(C)c3)c2)c(C)cc1Cl` [Example 63, (S)-2-{[3′-(4-Chloro-2,5-dimethyl-benzenesulfonylamino)-3-methyl-biphenyl-4-carbonyl]-amino}-propionic acid]: the IC50 stood at 1.3 nM. `Cc1cc(S(=O)(=O)Nc2cccc(-c3ccc(C(=O)NCC(=O)O)c(C)c3)c2)c(C)cc1Cl` [Example 64, {[3′-(4-Chloro-2,5-dimethyl-benzenesulfonylamino)-3-methyl-biphenyl-4-carbonyl]-amino}-acetic acid]: the IC50 is 1.3 nM. For the compound `Cc1cc(S(=O)(=O)Nc2cccc(-c3ccc(C(=O)NCc4nnn[nH]4)c(C)c3)c2)c(C)cc1Cl` [Example 66, 3′-(4-Chloro-2,5-dimethyl-benzenesulfonylamino)-3-methyl-biphenyl-4-carboxylic acid (1H-tetrazol-5-ylmethyl)-amide], the IC50 is 5.5 nM. On to `COc1cc(-c2cccc(NS(=O)(=O)c3cc(C)c(Cl)cc3C)c2)ccc1C(=O)NCC(=O)O` [Example 70, {[3′-(4-Chloro-2,5-dimethyl-benzenesulfonylamino)-3-methoxy-biphenyl-4-carbonyl]-amino}-acetic acid], for which the IC50 was 1 nM. For `COc1cc(-c2cccc(NS(=O)(=O)c3cc(C)c(Cl)cc3C)c2)ccc1C(=O)N[C@@H](CO)C(=O)O` [Example 71, (S)-2-{[3′-(4-Chloro-2,5-dimethyl-benzenesulfonylamino)-3-methoxy-biphenyl-4-carbonyl]-amino}-3-hydroxy-propionic acid], the IC50 was found to be 1 nM.

Turning to `Cc1cc(S(=O)(=O)Nc2cccc(-c3cnc(C(=O)N[C@@H](CO)C(=O)O)cn3)c2)c(C)cc1Cl` [Example 79, (S)-2-({5-[3-(4-Chloro-2,5-dimethyl-benzenesulfonylamino)-phenyl]-pyrazine-2-carbonyl}-amino)-3-hydroxy-propionic acid], the IC50 worked out at 5 nM.

Broadly, the IC50 is the concentration that gives 50% inhibition.
